# Experiments:
# [1] = PAMPA (Precoated PAMPA Plate System Gentest) passive permeability; type: in vitro ADME; conditions: passive blood–brain barrier permeability model
# [2] = system: maximal electroshock (MES) seizures, mice; conditions: reference ASMs, i.p., pretreatment time 0.5 h (LCS, VPA) or 1.0 h (LEV, CBD), literature or own experiments; cited from earlier work
# [3] = system: 6 Hz (32 mA) seizures, mice; conditions: reference ASMs, i.p., pretreatment time 0.5 h (LCS, VPA) or 1.0 h (LEV, CBD); cited from earlier work
# [4] = system: 6 Hz (44 mA) seizures, mice; conditions: reference ASMs, i.p., pretreatment time 0.5 h (LCS, VPA) or 1.0 h (LEV, CBD); cited from earlier work
# body temperature, mice = test: capsaicin-induced hypothermia test / rectal temperature; type: in vivo, mouse
# Procedure: In this study, we used the capsaicin-induced hypothermia model in mice to evaluate the effect of eutomers (R)-31, (R)-32, and (R)-33 on body temperature and to provide more data related to their on-target activity (i.e., antagonism of TRPV1) (Figure S5A–D). Capsaicin given i.p. at a dose of 5 mg/kg produced a marked decrease in rectal temperature at 15 min post injection (p < 0.0001). The temperature returned to normal values within 30–60 min after capsaicin injection. […] None of the tested compounds reversed the capsaicin-induced hypothermia.
# The changes in body temperature in the capsaicin-induced hypothermia model were evaluated as described previously. Eutomers (R)-31, (R)-32, and (R)-33 were suspended in a 1% Tween 80 and administered i.p. 15 min before injection of capsaicin (5 mg/kg, i.p.). The corresponding vehicles (1% DMSO or 1% Tween 80) were given to the control animals. Using an electronic thermometer (ThermoWorks, Alpine, Utah, USA), changes in the mouse’s rectal temperature were recorded by inserting the rectal probe approximately 2 cm into the mouse’s rectum. After −15, 0, 15, 30, 60, 90, 120, and 180 min, the measurements were collected. Subsequently, the variations in rectal temperature between the baseline ([…] for the groups receiving compounds and BCTC in conjunction with the vehicle, or […] for the groups receiving the vehicle, compounds, and BCTC in combination with the capsaicin) and the corresponding time point ΔT (°C) were computed and examined.
# Figure S5. Acute effects of BCTC (A), (R)-31 (B), (R)-32 (C), and (R)-33 (D) on rectal temperature in the capsaicin-induced test in mice. Capsaicin (CPS) or vehicle (1% DMSO) were injected i.p. at 0 min, as indicated by the arrows.
# BCTC, (R)-31, (R)-32, and (R)-33 were suspended in 1% Tween 80 and administered i.p. 15 min before CPS or vehicle injection. The temperature was measured at -15, 0, 15, 30, 60, 90, 120, and 180 min. Since body temperature returned to control values 60 min after CPS injection, subsequent measurements are not shown.
# Data are presented as the mean differences (ΔT) in rectal temperature from 0 to -15 min (time point 0 min), from 15 to 0 min (time point 15 min), from 30 to 0 min (time point 30 min), and from 60 to 0 min (time point 60 min); n = 6–8 animals/group. Statistical significance was evaluated using one-way ANOVA with Tukey’s post hoc test: […]
# (1 picture or pasted object on this page, not shown here)
# Na+ channel (site 2) = Na+ channel (site 2) radioligand binding; conditions: 100 µM, rat cerebral cortex
# Procedure: The current body of literature consistently reports that both sodium (Navx) and Cav1.2 calcium ion channels can be involved in the pathogenesis of epilepsy[67]−[69] and neuropathic pain.[70]−[73] […] Therefore, we performed binding and functional studies toward sodium (site 2) and calcium Cav1.2 channels at concentrations of 10 μM for (R)-31−(R)-33.
# (§1) Using previously described testing methodologies, binding/functional tests were conducted on a commercial basis at Eurofins Laboratories (Poitiers, France) and Eurofins Panlabs Discovery Services Taiwan, Ltd. (New Taipei City, Taiwan); see Table S9 for more information.
# (§2) Table S9. Radioligand binding and functional assays. […]
# (§3) Assays were performed commercially in Eurofins Laboratories (Poitiers, France) or Eurofins Panlabs Discovery Services
# (§4) Taiwan, Ltd. (New Taipei City, Taiwan).
# TRPV1 (VR1) (h) = target: T1, TRPV1 (VR1) (h) (Homo sapiens, UniProt Q8NER1); test: TRPV1 (VR1) (h) (antagonist effect); type: cell-based; conditions: 100 µM, human recombinant CHO cells; read-out: % Inhibition of control specific binding (functional study, antagonist effect)
# T1 construct: host or cells: CHO cells
# T1 sequence (Q8NER1 whole entry): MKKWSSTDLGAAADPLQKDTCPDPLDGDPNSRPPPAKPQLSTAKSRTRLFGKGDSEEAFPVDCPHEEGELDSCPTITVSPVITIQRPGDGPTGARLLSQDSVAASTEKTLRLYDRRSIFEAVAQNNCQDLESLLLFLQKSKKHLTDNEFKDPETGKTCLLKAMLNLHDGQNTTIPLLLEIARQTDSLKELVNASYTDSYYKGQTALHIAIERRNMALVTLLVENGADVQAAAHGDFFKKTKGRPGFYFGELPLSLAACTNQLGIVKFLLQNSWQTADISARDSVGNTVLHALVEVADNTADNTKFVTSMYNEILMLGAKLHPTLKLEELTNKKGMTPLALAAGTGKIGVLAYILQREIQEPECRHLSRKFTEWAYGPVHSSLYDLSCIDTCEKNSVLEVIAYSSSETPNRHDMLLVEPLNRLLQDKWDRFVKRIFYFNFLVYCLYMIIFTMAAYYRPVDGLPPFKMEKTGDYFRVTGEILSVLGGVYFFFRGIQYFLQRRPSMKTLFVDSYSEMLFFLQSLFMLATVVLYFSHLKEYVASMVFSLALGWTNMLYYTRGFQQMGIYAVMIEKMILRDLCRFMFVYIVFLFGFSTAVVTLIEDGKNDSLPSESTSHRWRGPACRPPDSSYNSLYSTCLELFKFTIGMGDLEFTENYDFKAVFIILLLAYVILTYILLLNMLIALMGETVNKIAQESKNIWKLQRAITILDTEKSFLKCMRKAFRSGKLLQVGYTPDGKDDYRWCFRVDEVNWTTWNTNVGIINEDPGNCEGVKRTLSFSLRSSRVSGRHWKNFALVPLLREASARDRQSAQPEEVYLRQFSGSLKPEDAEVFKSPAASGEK
# Procedure: (§5) Further in vitro functional studies confirmed TRPV1 antagonist activity for (R)-31–(R)-33.
# as §1, §2
# TRPV1 (VR1) (h) (antagonist effect) […]
# as §3, §4
# [5] = system: Cav1.2 (dihydropyridine site); test: Cav1.2 (dihydropyridine site, antagonist radioligand) binding; conditions: 100 µM, rat cerebral cortex
# Procedure: as §5
# (§6) Table S2. In vitro TRPV1 channel antagonist activity for compounds 3–12 (series A), 21–24 (series B) in […]
# (§7) Cmpd % Inhibition of control Cmpd % Inhibition of control agonist responsea agonist responsea
# (§8) *Source: human recombinant CHO cells. a Results showing activity higher than 50% are considered to represent significant […]
# (§9) around the control level. Assays were performed commercially in Eurofins Laboratories (Poitiers, France).
# (§10) Binding studies Source % Inhibition of control specific binding […]
# (§11) Na+ channel (site 2) Rat cerebral 94.9 (100)
# (§12) Cav1.2 (dihydropyridine Rat cerebral 58.0 (100) site, antagonist radioligand) cortex
# (§13) Functional studies Source % Inhibition of control specific binding […]
# (§14) (antagonist effect) CHO cells
# (§15) (agonist effect) CHO cells
# (§16) Table S9. Radioligand binding and functional assays.
# (§17) Cav1.2 (L-type) (h) calcium ion channel cell-based antagonist calcium flux assay TRPV1 (VR1) (h) (antagonist effect)
# (§18) TRPA1 (h) transient potential ion channel cell based antagonist calcium flux assay TRPM8 (h) (antagonist effect)
# (§19) Cav1.2 (L-type) (dihydropyridine site, antagonist radioligand) […]
# (§20) Assays were performed commercially in Eurofins Laboratories (Poitiers, France) or Eurofins Panlabs Discovery Services Taiwan, Ltd. (New Taipei City, Taiwan).
# CB1 (h) = target: T2, CB1 (h) (Homo sapiens, UniProt P21554); test: CB1 (h) (agonist effect); type: cell-based; conditions: human recombinant CHO cells, read-out: % Inhibition of control specific binding (functional study, agonist effect)
# T2 construct: host or cells: CHO cells
# T2 sequence (P21554 whole entry): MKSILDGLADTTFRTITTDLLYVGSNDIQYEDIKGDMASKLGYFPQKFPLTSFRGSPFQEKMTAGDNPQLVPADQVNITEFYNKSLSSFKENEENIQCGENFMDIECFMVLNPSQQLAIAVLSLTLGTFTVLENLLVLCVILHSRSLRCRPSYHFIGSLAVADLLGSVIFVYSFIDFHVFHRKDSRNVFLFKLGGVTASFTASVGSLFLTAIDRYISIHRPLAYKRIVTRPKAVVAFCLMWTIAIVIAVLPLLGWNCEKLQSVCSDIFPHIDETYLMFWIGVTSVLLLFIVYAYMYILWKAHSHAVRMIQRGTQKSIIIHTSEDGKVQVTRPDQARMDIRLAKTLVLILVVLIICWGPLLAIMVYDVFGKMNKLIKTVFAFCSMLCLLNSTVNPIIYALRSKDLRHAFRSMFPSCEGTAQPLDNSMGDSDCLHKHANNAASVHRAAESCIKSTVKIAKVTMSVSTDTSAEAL
# Procedure: as §5, §6, §7, §8, §9, §10, §11, §12, §13, §14, §15, §16, §17, §18, §19, §20
smiles,measurement,setting,value
"Cn1c(=O)c2c(ncn2C)n(C)c1=O [caffeine, reference compound]",permeability coefficient (Pe),[1],3.46 × 10^–6 cm/s
"COC[C@@H](NC(C)=O)C(=O)NCc1ccccc1 [LCS, lacosamide]",ED50 MES,[2],9.2 mg/kg
same,ED50 6 Hz (32 mA),[3],5.3 mg/kg
same,ED50 6 Hz (44 mA),[4],6.9 mg/kg
"CC(C)(C)c1ccc(NC(=O)N2CCN(c3ncccc3Cl)CC2)cc1 [BCTC, reference compound]",effect on capsaicin-induced hypothermia,"body temperature, mice; 20 mg/kg with capsaicin 5 mg/kg i.p., p < 0.0001 at 15 and 30 min",alleviated the capsaicin-induced hypothermia
same,"effect on body temperature, administered alone","body temperature, mice; 20 mg/kg, 15 min after injection, p < 0.05",caused a significant increase in body temperature
"C=C(C)[C@@H]1CCC(C)=C[C@H]1c1c(O)cc(CCCCC)cc1O [CBD, cannabidiol]",% inhibition of control specific binding,Na+ channel (site 2),94.9%
same,inhibition at 100 µM,TRPV1 (VR1) (h),47.8%
same,% inhibition of control specific binding,[5],58.0%
same,inhibition at 100 µM,CB1 (h),103%
same,ED50 MES,[2],80.0 mg/kg
